Test results published in patent US8101761B2, “(E)-N-{3-[1-(8-fluoro-11H-10-OXA-1-AZA-dibenzo [A,D] cyclohepten-5ylidene)-propyl]-phenyl}-methanesulfonamide as glucocorticoid receptor modulator for the treatment of rheumatoid arthritis” (Eli Lilly and Company, priority 2008, dated 2012).
Like-named read-outs stand apart in the source and are kept apart here.

Tested on: carrageenan-induced paw edema in male Sprague-Dawley rats
Assay: Carrageenan-induced paw edema (CPE) model
Type: in vivo
Conditions: rat, oral gavage 2 h before carrageenan, paws taken 3 h after, mean of 5 determinations
Text: Carrageenans are a group of polysaccharides which can induce an acute inflammatory response in animals. Cardinal signs of inflammation including edema, hyperalgesia and erythema are developed in the injection site immediately following injection. The CPE model is a recognized model of inflammation and can be used to evaluate the anti-inflammatory effects of glucocorticoid receptor ligands.
To evaluate the anti-inflammatory effects of Compound (I), the compound is formulated in a vehicle comprising 0.5% carboxymethyl cellulose and 0.25% Tween 80 then administered orally via gavage to male Sprague-Dawley rats (180-200 g). For comparison, prednisolone may be administered orally in the same vehicle. Two hours later, 1% carrageenan in 50 μl of 0.9% pyrogen free saline is injected into the subplantar regions of the right hind paw. Rats are euthanized by CO2 at 3 hours after the carrageenan injection. Paws are removed then weighed using a microbalance. Paws are then dissected by making several cuts on the paw surface and immediately immersing into liquid nitrogen until frozen. Frozen paws are then centrifuged to extract the exudates. Exudate levels of IL-1β, a cytokine generated during the inflammatory response is then measured by ELISA according to manufacturers instructions. Total paw protein is also measured using a protein assay kit and the absolute level of IL-1β is normalized to yield a concentration value of ng IL-1β/mg total protein.

C[C@]12C=CC(=O)C=C1CC[C@@H]1[C@@H]2[C@@H](O)C[C@@]2(C)[C@H]1CC[C@]2(O)C(=O)CO [prednisolone, reference compound]
ED50 (read-out: ED50, inhibition of carrageenan induced paw weight gain): ~6.6 mg/kg | ED50 (read-out: ED50, reduction of paw exudate levels of IL-1β): < 1 mg/kg
